The text below walks through data of US20230143042A1, “SYSTEM AND METHOD FOR AEROSOL PARTICLE PRODUCTION OF SUBMICRON AND NANO STRUCTURED MATERIALS” (The Trustees of Princeton University, priority 2020, published 2023).

The data set in a line: Size of dried aerosol particles by scanning electron microscopy. The class given is physicochemical. The note with it: atomized at 1.5 bar gauge (TIPT-based sol 2.5 bar), dried in room air ~23° C., ~30% RH. As to the method:
Various concentrations (e.g., 0.5-15% wt.) of solutions of sodium chloride in deionized water was prepared by mixing the crystals of table salt (NaCl) with deionized water at 45° C. for 15 min. The procedure for preparing precursor of silica (SiO2) was: tetraethoxysilane (TEOS), ethanol, deionized water, and HCl (mole ratio 1:3.8:1:5×10−5) were mixed at 60° C. for 120 min and then aged at room temperature under continuous stirring up to 43 hours. For synthesis of titania (TiO2) particles, titanium (IV) tetraisopropoxide (TIPT) and titanium (IV) butoxide (TBT)-based precursors were utilized. […]
For the salt solutions, the temperature and relative humidity of room air used for drying of droplets were ˜23° C. and ˜30% respectively. […] Provided the measured air velocity used to dry the droplets is ˜0.1-0.5 m/s (laminar flow, Re=300-1600), in terms of the drying kinetics of a single droplet, the generated droplets are expected to turn into dry particles after traveling 0.04-400 μm in room air, whereas the overall particle residence time in the setup is ˜1-5 s, which is much longer than the needed drying time. […]

Molecules are shown by their SMILES.

Take `[Cl-].[Na+]` [NaCl, sodium chloride]: the mean particle size worked out at 227 nm.
